With `CCCN[C@@H]1CCc2nc(N)sc2C1.Cl.Cl` [Form B, (R)-(+)-2-amino-4,5,6,7-tetrahydro-6-(n-propylamino)benzothiazole dihydrochloride], the “polymorphic form conversion under exposure to humidity and/or moisture” value is “converts to Form A”.

(Values after patent US10208003B2, “Synthesis of amine substituted 4,5,6,7-tetrahydrobenzothiazole compounds” (KNOPP BIOSCIENCES LLC, priority 2011, dated 2019).)
